From patent US20060263802A1 (priority 2003, published 2006)
“Also recorded” adds a separate entry of the source.

Experiments:
Assay type in all cases: binding
[1] = system: human monoclonal antibody CRJB
[2] = system: human monoclonal antibody CR57
[3] = system: human monoclonal antibody CRJA
[4] = system: human monoclonal antibody CRJB; remark: listed apart in the source
[5] = system: human monoclonal antibody CR57; remark: listed apart in the source
[6] = system: human monoclonal antibody CRJA; remark: listed apart in the source

Sequence	Binding of CRJB to linear peptide (PEPSCAN-ELISA signal) [1]	Binding of CR57 to linear peptide (PEPSCAN-ELISA signal) [2]	Binding of CRJA to linear peptide (PEPSCAN-ELISA signal) [3]	Binding of CRJB (10 μg/ml) to looped/cyclic peptide (PEPSCAN-ELISA signal) [4]	Binding of CR57 (10 μg/ml) to looped/cyclic peptide (PEPSCAN-ELISA signal) [5]	Binding of CRJA (10 μg/ml) to looped/cyclic peptide (PEPSCAN-ELISA signal) [6]	Binding of CRJB (10 μg/ml) to looped/cyclic peptide (PEPSCAN-ELISA) [4]	Binding of CR57 (10 μg/ml) to looped/cyclic peptide (PEPSCAN-ELISA) [5]	Binding of CRJA (10 μg/ml) to looped/cyclic peptide (PEPSCAN-ELISA) [6]	binding of antibody CRJB to looped/cyclic peptide (PEPSCAN OD) [4]	Binding of human monoclonal antibody CRJB to linear peptide (PEPSCAN-ELISA signal) [1]	Binding of human monoclonal antibody CR57 to linear peptide (PEPSCAN-ELISA signal) [2]	Binding of human monoclonal antibody CRJA to linear peptide (PEPSCAN-ELISA signal) [3]	Binding of CRJB to looped/cyclic peptide (PEPSCAN-ELISA signal) [4]	Binding of CR57 to looped/cyclic peptide (PEPSCAN-ELISA signal) [5]	Binding of CRJA to looped/cyclic peptide (PEPSCAN-ELISA signal) [6]
NGFTCTGVVTEAENY	101	69	98	76	92	82										
NGIILGPDGNVLIPE	146	102	89				85	104	85							
NGVFFNGIILGPDGN	117	66	62				85	58	46							
NHDYTIWMPENPRLG	119	71	108	186	170	123				display reactivity; also recorded: clearly bound						
NKTLMEADAHYKSVR	116	104	94				97	120	98							
NLHDFRSDEIEHLVV	113	83	97				62	90	86							
NLSGFSYMELKVGYI	115	61	94	83	68	90										
NLVVEDEGCTNLSGF	119	75	85	92	106	74										
NNLVVEDEGCTNLSG	99	72	93	75	86	88										
NPRLGMSCDIFTNSR	113	90	82	101	78	91										
NPYPDYRWLRTVKTT	102	85	106	92	89	84										
NQVSGVDLGLPNWGK											138	78	103	128	84	79
NSRGKRASKGSETCG	100	92	63	60	107	71										
NVLIPEMQSSLLQQH	120	72	92				99	97	110							
NWKMAGDPRYEESLH	101	58	69	78	94	93										
NYTNFVGYVTTTFKR	114	49	97	88	58	85										
PDACRAAYNWKMAGD	124	61	93	76	97	96										
PDGNVLIPEMQSSLL	129	87	99				108	110	112							
PDQLVNLHDFRSDEI	106	35	43				73	70	46							
PDVHNQVSGVDLGLP											129	106	107	104	106	115
PDYRWLRTVKTTKES	85	76	83	72	79	90										
PEMQSSLLQQHMELL	133	62	79				82	72	78							
PENPRLGMSCDIFTN	111	83	94	98	116	83										
PGFGKAYTIFNKTLM	113	78	118				79	110	94							
PHVNGVFFNGIILGP	173	93	117				134	112	107							
PIDIHHLSCPNNLVV	93	46	39	70	50	38										
PIYTILDKLGPWSPI	89	36	143	77	58	78										
PLADPSTVFKDGDEA											125	99	84	97	148	97
PLVHPLADPSTVFKD	112	93	90				90	101	104							
